PubChem BioAssay AID1508610 (The Scripps Research Institute Molecular Screening Center, 2020)
Active and inactive are the calls of the source. The rule behind the calls is not given here.

target: G-protein coupled receptor 151 (Homo sapiens) (UniProt Q8TDV0); test: GPR151 activator potency, dose response, cell-based (AID 1508610); conditions: cell-based GPR151 activation reporter
Sequence (Q8TDV0 whole entry, looked up): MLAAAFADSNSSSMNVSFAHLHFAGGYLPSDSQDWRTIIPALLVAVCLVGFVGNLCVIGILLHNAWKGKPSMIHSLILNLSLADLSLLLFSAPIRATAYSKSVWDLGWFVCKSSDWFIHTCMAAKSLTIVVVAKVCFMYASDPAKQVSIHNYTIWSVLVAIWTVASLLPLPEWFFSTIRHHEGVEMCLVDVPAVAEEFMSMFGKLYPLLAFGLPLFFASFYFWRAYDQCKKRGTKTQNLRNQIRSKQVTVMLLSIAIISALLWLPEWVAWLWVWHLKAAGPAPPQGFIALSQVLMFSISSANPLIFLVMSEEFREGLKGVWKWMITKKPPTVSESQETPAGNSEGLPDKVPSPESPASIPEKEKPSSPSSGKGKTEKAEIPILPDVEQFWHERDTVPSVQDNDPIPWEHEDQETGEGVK

| Structure (SMILES) | EC50 |
| --- | --- |
| Cc1ccc(-n2nc3c(c2NC(=O)c2cccc(F)c2)CS(=O)C3)c(C)c1 (configuration not stated) | > 27.8 µM (inactive) |
| CCN1/C(=C/c2ccc3cc(C)ccc3[n+]2CC)Sc2ccc(-c3ccccc3)cc21 | inactive |
| O=C1CCCCN1c1cccc(NS(=O)(=O)c2cc(F)ccc2F)c1 | > 28 µM (inactive) |
| COc1ccc(CCNc2ccnc(Nc3ccc(-n4ccnc4)cc3)n2)cc1 | inactive |
| COc1ccc(-c2ccc(C(=O)Nc3ccc(NC(C)=O)cc3)s2)cc1 | > 26.6 µM (inactive) |
| COc1cc(S(=O)(=O)N2CCN(c3ccc(C)c(C)c3)CC2)ccc1F | > 28 µM (inactive) |
| Cn1c(COc2ccc(Cl)cc2)nnc1SCC(=O)NCC(F)(F)F | > 28.4 µM (inactive) |
| O=C(c1cccs1)N1CCN=C1SCc1cccc([N+](=O)[O-])c1 | > 28 µM (inactive) |
| O=C(/C=C/c1cccc([N+](=O)[O-])c1)NC1C2CC3CC(C2)CC1C3 (configuration not stated) | > 34 µM (inactive) |
| CC(=O)Nc1ccc(NC(=O)c2ccc3nc(Nc4ccccn4)sc3c2)cc1 | > 28 µM (inactive) |
| CNc1nc2c(-c3ccc(Cl)cc3)nnn2c2ccccc12 | > 28 µM (inactive) |
| NC(=O)/C(=C\c1ccco1)NC(=O)c1ccccc1Br | > 28 µM (inactive) |
| COc1cccc(/C=C/c2nc3ccccc3c(=O)[nH]2)c1O | > 32.3 µM (inactive) |
| O=c1c2ccccc2cnn1-c1nc2ccccc2[nH]1 | > 29.9 µM (inactive) |
| O=C(N1CCN(Cc2ccccc2)CC1)C(Cl)(Cl)Cl | > 28 µM (inactive) |
| Cc1c(N=Nc2c(O)[nH]c(=S)[nH]c2=O)c(=O)n(-c2ccccc2)n1C | > 28 µM (inactive) |
| CCOc1ccc(-n2c(SCC(=O)Nc3ccccc3CC)nc3n[nH]c(C)c3c2=N)cc1 | > 27.1 µM (inactive) |
| CC1CC(=O)N(C)c2ccccc2S1 (configuration not stated) | > 28 µM (inactive) |
| Cc1ccccc1C(=O)Nc1noc2ccccc12 | > 28 µM (inactive) |
| Cc1sc2ncnc(N3CCN(c4ccccn4)CC3)c2c1C | > 32.6 µM (inactive) |
| CCCNC(=O)c1ccc2nc(-c3csc4ccccc34)sc2c1 | > 25.7 µM (inactive) |
| Cc1sc(NC(=O)c2cc3ccccc3oc2=O)nc1-c1ccc(Br)cc1 | > 18.6 µM (inactive) |

| Structure (SMILES) | EC50 |
| --- | --- |
| O=C(O)c1cccc(COc2ccc3ccccc3c2)c1 | > 28 µM (inactive) |
| Cc1cc(N2CCCCC2)nc2ccc(NC(=O)c3cccc([N+](=O)[O-])c3)cc12 | > 29.2 µM (inactive) |
| CCN=C1SC(CC(=O)Nc2sc(C)c(C)c2C(=O)OC)C(=O)N1CC (configuration not stated) | > 28.2 µM (inactive) |
| COC(=O)C(NC(=O)c1cccc(Cl)c1)(Nc1ccc(Cl)cn1)C(F)(F)F (configuration not stated) | > 28 µM (inactive) |
| CN1CCN(C(=O)c2ccc(-c3nc4ccc(C(=O)NCCOc5ccccc5)cc4s3)cc2)CC1 | > 28.1 µM (inactive) |
| Cc1ccc(CNC(=O)c2csnn2)cc1 | > 28 µM (inactive) |
| Cc1ccccc1N(CC(=O)N1CCOCC1)S(=O)(=O)c1ccc(Cl)cc1 | > 28 µM (inactive) |
| COc1cccc(NC(=O)c2oc3ccc4c(c3c2C)C(=O)CC(C)(C)O4)c1 | > 28 µM (inactive) |
| CCN(CC)S(=O)(=O)c1ccc(-c2csc(=Nc3ccccc3OC)n2CC)cc1 | > 17.3 µM (inactive) |
| O=C(O)c1ccc(-c2nc3ccccc3s2)s1 | > 30 µM (inactive) |
| C=CCN1C(=O)/C(=C/c2ccc(Cl)cc2)C(=O)NC1=S | > 28 µM (inactive) |
| Cc1ccsc1C(=O)Nc1nc2ccc(S(C)(=O)=O)cc2s1 | > 28.6 µM (inactive) |
| COCCNC(=O)/C(C#N)=C/C=C/c1ccccc1 | > 30.6 µM (inactive) |
| O=C(O)c1cc(N=Cc2ccco2)ccc1O | > 28 µM (inactive) |
| O=C1NC(=S)S/C1=C\c1ccc(C(=O)O)cc1 | > 29.6 µM (inactive) |
| CSc1cccc(CN2CCN(Cc3ccccc3F)C(CCO)C2)c1 (configuration not stated) | > 28 µM (inactive) |
| Cc1cc(Br)ccc1NC(=O)c1ccc(C#N)cc1F | > 28 µM (inactive) |
| Cc1cc(C)c(C#N)c(Oc2cccc(N)c2)n1 | > 28 µM (inactive) |
| CCN(CC)S(=O)(=O)c1ccc(C(=O)Nc2ccc(Cc3ccncc3)cc2)cc1 | > 25 µM (inactive) |
| O=C(O)c1cccc(COc2cccc(Cl)c2)c1 | > 28 µM (inactive) |
| O=C1CCN(C(=O)c2ccc(-c3nc4ccccc4s3)s2)CC1 | > 29.5 µM (inactive) |
| C/C(=N\NC(=S)NCc1ccco1)c1cccc([N+](=O)[O-])c1 | > 28.2 µM (inactive) |

| Structure (SMILES) | EC50 |
| --- | --- |
| COc1ccc(-c2nc3ccccc3[nH]2)cc1 | > 35 µM (inactive) |
| COc1cc(C2CC(=O)Nc3cc(C)c(C)cc32)cc(OC)c1OC (configuration not stated) | > 26.6 µM (inactive) |
| O=C1CS/C(=C\c2nc3ccccc3s2)N1 | > 31.6 µM (inactive) |
| CC(C)CC(=O)NCC1CCC2(CCN(Cc3ccccc3F)CC2)O1 (configuration not stated) | > 28 µM (inactive) |
| COc1cccc(OC)c1C(=O)Nc1ccc(Br)cn1 | > 28 µM (inactive) |
| O=C(NCCO)c1ccc2nc(-c3csc4ccccc34)sc2c1 | > 28.1 µM (inactive) |
| O=C(O)c1ccc(-n2cc(-c3cnccn3)cn2)cc1 | > 28 µM (inactive) |
| Cn1ncc2c(NCCc3ccc(Cl)cc3Cl)ncnc21 | > 27.8 µM (inactive) |
| O=S(=O)(c1ccc(-c2csc(=Nc3cccc(Cl)c3)n2CCCO)cc1)N1CCCCC1 | > 17.6 µM (inactive) |
| Cn1cc(CCC(=O)NC2CCN(Cc3ccccc3)CC2)c2ccccc21 | > 28 µM (inactive) |
| CCOC(=O)N1CCN(C(=S)Nc2ccc(C)cc2)CC1 | > 28 µM (inactive) |
| Oc1ccc(Nc2ncnc3ccc(I)cc23)cc1 | > 28 µM (inactive) |
| C=CCOC(=O)CCN1C(=O)c2ccccc2C1=O | > 28 µM (inactive) |
| CCOc1cc(NC(=O)C2CCCO2)c(OCC)cc1NC(C)=O (configuration not stated) | > 9.34 µM (inactive) |
| CC1CCCCN1Cc1nc2c(c(=O)n(C)c(=O)n2C)n1CC(N)=O (configuration not stated) | > 28 µM (inactive) |
| O=C(NCCOc1ccccc1)c1ccc(-c2ccc(N3CCOCC3)nc2)s1 | > 33 µM (inactive) |
| Cc1ccc2nc(/C(C#N)=C\c3ccccc3OCC#N)[nH]c2c1 | > 28 µM (inactive) |
| CCn1ccnc1CN1CCN(Cc2ccc(F)cc2)C(CCO)C1 (configuration not stated) | > 28 µM (inactive) |
| CCC[n+]1c(/C=C2\Sc3ccccc3N2CC)ccc2ccccc21 | > 24.5 µM (inactive) |
| COc1cc(C2NC(=O)NC(C)=C2C(C)=O)cc(Br)c1OCc1ccccc1 (configuration not stated) | > 28 µM (inactive) |
| O=C(Nc1ccc(-c2cccc(F)c2)cc1)C1CCCN(C(=O)C2CCOCC2)C1 (configuration not stated) | > 28 µM (inactive) |
| CCN(CC)c1nc(SC)nc(Cl)c1Cc1ccc(OC(C)C)cc1 | > 25.2 µM (inactive) |

| Structure (SMILES) | EC50 |
| --- | --- |
| COc1ccccc1C1c2c(oc3ccc(C)cc3c2=O)C(=O)N1CCN1CCOCC1 (configuration not stated) | 0.00152 µM |
| O=C(CSc1nc(-c2ccccc2)cs1)Nc1ccccc1 | > 28 µM (inactive) |
| CCCCCNC(=O)c1c(O)c2c([nH]c1=O)CCCC2 | > 34.1 µM (inactive) |
| O=C(NCSc1ccncn1)c1ccccc1 | > 41.2 µM (inactive) |
| O=[N+]([O-])c1ccc(/C=C/c2ccc(O)cc2)cc1 | > 28.9 µM (inactive) |
| Cn1nc(C(=O)NCc2ccc(F)cc2)c2c1-c1ccccc1OC2 | > 28 µM (inactive) |
| N#Cc1sc(NC(=O)c2ccc(F)c(F)c2)nc1Cl | > 28 µM (inactive) |
| COc1ccc(/C=C/C(=O)Nc2ccccc2C(=O)O)cc1OC | > 28 µM (inactive) |
| COc1ccc(Cn2nccc2N)cc1OC | > 28.8 µM (inactive) |
| Cc1cc2c(cc1C)C(c1cc([N+](=O)[O-])ccc1Cl)CC(=O)N2 (configuration not stated) | > 33.6 µM (inactive) |
| COc1ccc(/C=C2/NC(=O)N(c3cccc(Cl)c3)C2=O)c(OC)c1 | > 28 µM (inactive) |
| CN1C(=O)C(=Cc2nc3ccccc3c(=O)n2-c2ccc([N+](=O)[O-])cc2)c2cc(Br)ccc21 | > 19.1 µM (inactive) |
| CCOC(=O)c1sc(NC(=O)C2CC2)nc1C | > 28.6 µM (inactive) |
| OC1CCN(Cc2ccc3c(c2)CN(CC2CC=CCC2)CCO3)CC1 (configuration not stated) | > 28 µM (inactive) |
| Cc1ccc(S(=O)(=O)N(CC(O)Cn2nc(C)cc2C)c2cccc([N+](=O)[O-])c2)cc1 (configuration not stated) | > 28 µM (inactive) |
| CCOc1ccc(-c2csc(/C(C#N)=C/c3ccccc3OCC)n2)cc1 | > 25.5 µM (inactive) |
| COc1ccc2[nH]c(C)c(CCNCc3ccc(OC(F)(F)F)cc3)c2c1 | > 21.6 µM (inactive) |
| O=C(c1ccc2c(c1)OCO2)N1CCN(c2ccc(Cl)cc2)CC1 | > 28 µM (inactive) |
| CCC(Sc1nc(NC2CCCCC2)c2ccccc2n1)C(=O)Nc1ccc2c(c1)OCO2 (configuration not stated) | > 20.6 µM (inactive) |
| NC[C@H]1O[C@H](O[C@H]2[C@H](O)[C@@H](O[C@H]3O[C@H](CO)[C@@H](O)[C@H](N)[C@H]3O)[C@H](N)C[C@@H]2N)[C@H](N)C[C@@H]1O | > 28 µM (inactive) |
| COc1ccccc1-c1nnc(NC(=O)c2ccc([N+](=O)[O-])s2)o1 | > 9.17 µM (inactive) |
